A short description of data set [1]: Absorption into the blood following sublingual versus oral administration of D-cycloserine. Format: in vivo, Sprague-Dawley rats. Conditions: rat; for concentration at 0 min / concentration at 10 min / concentration at 20 min / concentration at 40 min / concentration at 80 min: male, Sprague-Dawley, plasma, 15 mg/kg, read-out: DCS plasma level; for concentration at 0 min: 0 minutes (baseline before DCS administration); for concentration at 10 min: 10 minutes elapsed; for concentration at 20 min: 20 minutes elapsed; for concentration at 40 min: 40 minutes elapsed; for concentration at 80 min: 80 minutes elapsed. The protocol:
Subjects: 18 male, Sprague-Dawley rats (Charles River, Raleigh N.C.).
Procedure: The rats were implanted with intravenous catheters using the methods of Thrivikraman et al., (“Jugular vein catheterization for repeated blood sampling in the unrestrained conscious rat” (2002) Brain Res. Brain Res. Protoc., 10(2), p. 84-94). Following two days of recovery, rats were lightly anesthetized with isofluorothane and given DCS either sublingually (n=10) or orally (n=8). D-cycloserine was dissolved in saline and given at a volume of 75 μL/rat sublingually and (after dilution by a factor of two) 150 μL/rat when administered orally (concentration of 15 mg/kg). Aliquots of 0.5-1.0 mL blood samples were collected: at baseline before DCS administration; and subsequently at 10, 20, 40, and 80 minutes after DCS administration. Blood samples were injected into pre-heparinized tubes and immediately placed on ice. Because the assays required at least 1 mL of plasma, samples from two rats given the same treatment and sampled at the same time were combined so that there were 25 samples from the sublingual group (10 rats/2×5 samples) and 20 samples from the oral group (8 rats/2×5 samples). Plasma was separated by centrifugation at 770 g for 10 minutes, placed in polypropylene tubes, frozen at −80° C., then shipped on dry ice to an outside laboratory to assay DCS levels. […] At the dosages studied, the resulting DCS plasma levels were near the lower detection limits of the assay.

Data set [2] relates to Mycobacterium tuberculosis strains. Conditions: typical Mycobacterium tuberculosis strains; cited from earlier work.
For data set [3] the following is noted: cited from earlier work.
The conditions of data set [4]: sub-antimicrobial dose, cited from earlier work.
The conditions of data set [5]: typical doses for the treatment of tuberculosis (500-1000 mg/day), chronic dosing; cited from earlier work.

Like-named read-outs stand apart in the source and are kept apart here.

Take `NC1CONC1=O` (stereo not drawn) [DCS, 4-amino-1,2-oxazolidin-3-one]: in data set [1] (other: sublingual, sublingual), the concentration at 0 min is 0 ng/mL, the concentration at 10 min came out at 900 ng/mL, the concentration at 20 min was 1600 ng/mL and the concentration at 40 min was 4700 ng/mL. In data set [1] (other: sublingual, sublingual), the concentration at 80 min amounted to 5200 ng/mL. For the same molecule, in data set [1] (oral), the concentration at 0 min turned out to be 0 ng/mL, the concentration at 10 min was determined as 1600 ng/mL, the concentration at 20 min was found to be 2300 ng/mL and the concentration at 40 min is 5400 ng/mL. Also, the concentration at 80 min in data set [1] (oral) came to 5400 ng/mL. For the same molecule, the “blood plasma concentrations after sublingual administration relative to oral administration” value in data set [1] (sublingual versus oral) is listed as “comparable to those achieved by oral administration”. In addition, the “minimum inhibitory concentrations (MIC) in vitro” value in data set [2] is 6 to 25 µg/mL. In addition, the “serum concentrations generally maintained” value in data set [3] (dose of 500 mg/day, chronic treatment) was 25000 to 30000 ng/mL. In addition, in data set [3] (known oral tablets, primarily renal excretion), the half-life was 10 h. For the same molecule, the “time of peak serum concentrations after dosing” value in data set [3] (known oral tablets) was 3 to 8 h. In data set [4] (child subject, less than or equal to 2 mg/kg), the peak serum concentrations result is given as “less than or equal to 5 μg/mL”. Further, the peak serum concentrations result in data set [4] (less than or equal to 2 mg/kg and greater than about 0.2 mg/kg) is reported as “less than or equal to 5 μg/mL”. For the same molecule, the “side effects in treated subjects” value in data set [5] is recorded as “significant neurological side effects”.

For orientation: half-life means how long it takes for the measured level to halve.
